# Experimental data as given in patent publication US20260250318A1, “COMPOSITIONS AND METHODS FOR CROSSING THE BLOOD BRAIN BARRIER” (VOYAGER THERAPEUTICS, INC., priority 2022, published 2026).
# Experiments:
# [1] = test system: brains, heart, liver, muscle, and DRG of the NHPs; test: Maturation of TTM-001 and TTM-002 capsids, NGS enrichment in NHP tissues; assay type: in vivo; details: relative to AAV9 control
# Outline: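 Variants carry mutations within and flanking the loop IV peptide insert: positions 450–466 were triplet-randomized, while positions 449–466 received low-frequency point mutations. The combined pool went into two NHPs, and each peptide was scored by NGS enrichment ratio against AAV9.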
# brain = test: Matured TTM-001 and TTM-002 variants, NGS enrichment in mouse brain; assay type: in vivo, mice; details: relative to AAV9 control
# [2] = NGS fold-enrichment, DRG of NHPs
# [3] = NGS fold-enrichment, RNA, brain of NHPs
# [4] = NGS fold-enrichment, heart of NHPs
# [5] = NGS fold-enrichment, liver DNA of NHPs
# [6] = NGS fold-enrichment, liver RNA of NHPs
# [7] = NGS fold-enrichment, muscle of NHPs
# [8] = NGS fold-enrichment, brain of mice
# [9] = NGS fold-enrichment of matured AAV capsid variants, NHP brain, RNA
# [10] = NGS fold-enrichment of RNA, NHP brain
# [11] = NGS fold-enrichment, NHP liver DNA
# [12] = NGS fold-enrichment, NHP liver RNA
# [13] = NGS fold-enrichment, NHP muscle
# [14] = NGS fold-enrichment, mouse brain
sequence,measurement,setting,value
KTIRDAGSPHSKAQNQQT,"Fold Enrichment relative to AAV9, DRG (NHP)",[1]; [2],0.000 fold
same,"Fold Enrichment relative to AAV9, Brain (NHP)",[1]; [3],60.346 fold
same,"Fold Enrichment relative to AAV9, Heart (NHP)",[1]; [4],0.000 fold
same,"Fold Enrichment relative to AAV9, Liver DNA (NHP)",[1]; [5],0.251 fold
same,"Fold Enrichment relative to AAV9, Liver RNA (NHP)",[1]; [6],0.141 fold
same,"Fold Enrichment relative to AAV9, Muscle (NHP)",[1]; [7],0.000 fold
same,"Fold Enrichment relative to AAV9, Brain (Mouse)",brain; [8],113.179 fold
KTFSGSGSPHSKAQNLQT,"Fold Enrichment relative to AAV9, DRG (NHP)",[1]; [2],0.000 fold
same,"Fold Enrichment relative to AAV9, Brain (NHP)",[1]; [3],70.035 fold
same,"Fold Enrichment relative to AAV9, Heart (NHP)",[1]; [4],0.327 fold
same,"Fold Enrichment relative to AAV9, Liver DNA (NHP)",[1]; [5],0.228 fold
same,"Fold Enrichment relative to AAV9, Liver RNA (NHP)",[1]; [6],0.000 fold
same,"Fold Enrichment relative to AAV9, Muscle (NHP)",[1]; [7],0.303 fold
same,"Fold Enrichment relative to AAV9, Brain (Mouse)",brain; [8],70.917 fold
KTINGSGSPHSKAQDRQS,"Fold Enrichment relative to AAV9, Brain (NHP)",[1]; [9],55.137 fold
same,"Fold Enrichment relative to AAV9, DRG (NHP)",[1]; NHP DRG,1.146 fold
same,"Fold Enrichment relative to AAV9, Heart (NHP)",[1]; NHP heart,0.016 fold
same,"Fold Enrichment relative to AAV9, Liver DNA (NHP)","[1]; NHP liver, DNA",0.086 fold
same,"Fold Enrichment relative to AAV9, Liver RNA (NHP)","[1]; NHP liver, RNA",0.644 fold
same,"Fold Enrichment relative to AAV9, Muscle (NHP)",[1]; NHP muscle,0.106 fold
same,"Fold Enrichment relative to AAV9, Brain (Mouse)",brain; mouse brain,55.701 fold
KTINGHDSPHKSGQLVIT,"Fold Enrichment relative to AAV9, Brain (NHP)",[1]; [10],76.781 fold
same,"Fold Enrichment relative to AAV9, DRG (NHP)","[1]; NGS fold-enrichment, NHP DRG",0.089 fold
same,"Fold Enrichment relative to AAV9, Heart (NHP)","[1]; NGS fold-enrichment, NHP heart",0.064 fold
same,"Fold Enrichment relative to AAV9, Liver DNA (NHP)",[1]; [11],0.475 fold
same,"Fold Enrichment relative to AAV9, Liver RNA (NHP)",[1]; [12],0.338 fold
same,"Fold Enrichment relative to AAV9, Muscle (NHP)",[1]; [13],0.000 fold
same,"Fold Enrichment relative to AAV9, Brain (Mouse)",brain; [14],11.323 fold
KTFNRSGSPHSKAQNQQI,"Fold Enrichment relative to AAV9, Brain (NHP)",[1]; [10],86.359 fold
same,"Fold Enrichment relative to AAV9, DRG (NHP)","[1]; NGS fold-enrichment, NHP DRG",0.000 fold
same,"Fold Enrichment relative to AAV9, Heart (NHP)","[1]; NGS fold-enrichment, NHP heart",113.67 fold
same,"Fold Enrichment relative to AAV9, Liver DNA (NHP)",[1]; [11],0.092 fold
same,"Fold Enrichment relative to AAV9, Liver RNA (NHP)",[1]; [12],0.000 fold
same,"Fold Enrichment relative to AAV9, Muscle (NHP)",[1]; [13],0.000 fold
same,"Fold Enrichment relative to AAV9, Brain (Mouse)",brain; [14],25.568 fold
KTINGHDSPHKSGQSVQT,"Fold Enrichment relative to AAV9, Brain (NHP)",[1]; [10],75.748 fold
same,"Fold Enrichment relative to AAV9, DRG (NHP)","[1]; NGS fold-enrichment, NHP DRG",0.010 fold
same,"Fold Enrichment relative to AAV9, Heart (NHP)","[1]; NGS fold-enrichment, NHP heart",6.808 fold
same,"Fold Enrichment relative to AAV9, Liver DNA (NHP)",[1]; [11],0.058 fold
same,"Fold Enrichment relative to AAV9, Liver RNA (NHP)",[1]; [12],0.165 fold
same,"Fold Enrichment relative to AAV9, Muscle (NHP)",[1]; [13],0.000 fold
same,"Fold Enrichment relative to AAV9, Brain (Mouse)",brain; [14],9.321 fold
KTINGSGSPHSKAQIGHT,"Fold Enrichment relative to AAV9, Brain (NHP)",[1]; [9],57.769 fold
same,"Fold Enrichment relative to AAV9, DRG (NHP)",[1]; NHP DRG,0.024 fold
same,"Fold Enrichment relative to AAV9, Heart (NHP)",[1]; NHP heart,0.000 fold
same,"Fold Enrichment relative to AAV9, Liver DNA (NHP)","[1]; NHP liver, DNA",0.154 fold
same,"Fold Enrichment relative to AAV9, Liver RNA (NHP)","[1]; NHP liver, RNA",0.281 fold
same,"Fold Enrichment relative to AAV9, Muscle (NHP)",[1]; NHP muscle,0.000 fold
same,"Fold Enrichment relative to AAV9, Brain (Mouse)",brain; mouse brain,99.262 fold
KAINGSGSPHSKAQSQQI,"Fold Enrichment relative to AAV9, Brain (NHP)",[1]; [9],56.976 fold
same,"Fold Enrichment relative to AAV9, DRG (NHP)",[1]; NHP DRG,0.000 fold
same,"Fold Enrichment relative to AAV9, Heart (NHP)",[1]; NHP heart,0.000 fold
same,"Fold Enrichment relative to AAV9, Liver DNA (NHP)","[1]; NHP liver, DNA",0.000 fold
same,"Fold Enrichment relative to AAV9, Liver RNA (NHP)","[1]; NHP liver, RNA",0.000 fold
same,"Fold Enrichment relative to AAV9, Muscle (NHP)",[1]; NHP muscle,0.000 fold
same,"Fold Enrichment relative to AAV9, Brain (Mouse)",brain; mouse brain,57.052 fold
KSEKGSGSPHSKAQNQQT,"Fold Enrichment relative to AAV9, Brain (NHP)",[1]; [9],58.566 fold
same,"Fold Enrichment relative to AAV9, DRG (NHP)",[1]; NHP DRG,0.000 fold
same,"Fold Enrichment relative to AAV9, Heart (NHP)",[1]; NHP heart,0.010 fold
same,"Fold Enrichment relative to AAV9, Liver DNA (NHP)","[1]; NHP liver, DNA",0.059 fold
same,"Fold Enrichment relative to AAV9, Liver RNA (NHP)","[1]; NHP liver, RNA",1.601 fold
same,"Fold Enrichment relative to AAV9, Muscle (NHP)",[1]; NHP muscle,0.011 fold
same,"Fold Enrichment relative to AAV9, Brain (Mouse)",brain; mouse brain,158.931 fold
KTISGGGSPHSKAQNQQN,"Fold Enrichment relative to AAV9, DRG (NHP)",[1]; [2],0.000 fold
same,"Fold Enrichment relative to AAV9, Brain (NHP)",[1]; [3],59.801 fold
same,"Fold Enrichment relative to AAV9, Heart (NHP)",[1]; [4],0.000 fold
same,"Fold Enrichment relative to AAV9, Liver DNA (NHP)",[1]; [5],0.039 fold
same,"Fold Enrichment relative to AAV9, Liver RNA (NHP)",[1]; [6],0.722 fold
same,"Fold Enrichment relative to AAV9, Muscle (NHP)",[1]; [7],0.000 fold
same,"Fold Enrichment relative to AAV9, Brain (Mouse)",brain; [8],87.761 fold
KTDKMSGSPHSKAQNQQT,"Fold Enrichment relative to AAV9, DRG (NHP)",[1]; [2],0.000 fold
same,"Fold Enrichment relative to AAV9, Brain (NHP)",[1]; [3],68.167 fold
same,"Fold Enrichment relative to AAV9, Heart (NHP)",[1]; [4],0.000 fold
same,"Fold Enrichment relative to AAV9, Liver DNA (NHP)",[1]; [5],0.205 fold
same,"Fold Enrichment relative to AAV9, Liver RNA (NHP)",[1]; [6],0.017 fold
same,"Fold Enrichment relative to AAV9, Muscle (NHP)",[1]; [7],0.000 fold
same,"Fold Enrichment relative to AAV9, Brain (Mouse)",brain; [8],88.234 fold
KTERLSGSPHSKAQNQQT,"Fold Enrichment relative to AAV9, Brain (NHP)",[1]; [10],95.857 fold
same,"Fold Enrichment relative to AAV9, DRG (NHP)",[1]; [2],0.000 fold
same,"Fold Enrichment relative to AAV9, DRG (NHP)","[1]; NGS fold-enrichment, NHP DRG",0.000 fold
same,"Fold Enrichment relative to AAV9, Heart (NHP)","[1]; NGS fold-enrichment, NHP heart",0.004 fold
same,"Fold Enrichment relative to AAV9, Liver DNA (NHP)",[1]; [11],0.260 fold
same,"Fold Enrichment relative to AAV9, Liver RNA (NHP)",[1]; [12],0.126 fold
same,"Fold Enrichment relative to AAV9, Muscle (NHP)",[1]; [13],0.005 fold
same,"Fold Enrichment relative to AAV9, Brain (NHP)",[1]; [3],95.857 fold
same,"Fold Enrichment relative to AAV9, Heart (NHP)",[1]; [4],0.004 fold
same,"Fold Enrichment relative to AAV9, Liver DNA (NHP)",[1]; [5],0.260 fold
same,"Fold Enrichment relative to AAV9, Liver RNA (NHP)",[1]; [6],0.126 fold
same,"Fold Enrichment relative to AAV9, Muscle (NHP)",[1]; [7],0.005 fold
same,"Fold Enrichment relative to AAV9, Brain (Mouse)",brain; [8],102.372 fold
same,"Fold Enrichment relative to AAV9, Brain (Mouse)",brain; [14],102.372 fold
KTINGSVSPHGKAQNQLT (peptide inserted in AAV capsid),"Fold Enrichment relative to AAV9, DRG (NHP)",[1]; [2],0.000 fold
same,"Fold Enrichment relative to AAV9, Brain (NHP)",[1]; [3],73.525 fold
same,"Fold Enrichment relative to AAV9, Heart (NHP)",[1]; [4],0.061 fold
same,"Fold Enrichment relative to AAV9, Liver DNA (NHP)",[1]; [5],0.053 fold
same,"Fold Enrichment relative to AAV9, Liver RNA (NHP)",[1]; [6],0.000 fold
same,"Fold Enrichment relative to AAV9, Muscle (NHP)",[1]; [7],0.067 fold
same,"Fold Enrichment relative to AAV9, Brain (Mouse)",brain; [8],51.358 fold
KTEKNSGSPHSKAQNQQT,"Fold Enrichment relative to AAV9, DRG (NHP)",[1]; [2],0.000 fold
same,"Fold Enrichment relative to AAV9, Brain (NHP)",[1]; [3],73.347 fold
same,"Fold Enrichment relative to AAV9, Heart (NHP)",[1]; [4],0.000 fold
same,"Fold Enrichment relative to AAV9, Liver DNA (NHP)",[1]; [5],0.021 fold
same,"Fold Enrichment relative to AAV9, Liver RNA (NHP)",[1]; [6],0.159 fold
same,"Fold Enrichment relative to AAV9, Muscle (NHP)",[1]; [7],0.044 fold
same,"Fold Enrichment relative to AAV9, Brain (Mouse)",brain; [8],74.393 fold
